The record followed here is article PMC7587356, “High-Throughput Screening for Inhibitors of the SARS-CoV-2 Protease Using a FRET-Biosensor” (Molecules, 2020).

For the assay, the target named is SARS-CoV-2 3CLpro (Severe acute respiratory syndrome coronavirus 2, UniProt P0DTD1). The assay can be described thus: biochemical. Type of assay: biochemical. Further details: Replicate_1 / Replicate_2 / mean / mean (LOPAC_screen_w_protease): unit not given here. Conditions: for inhibition at 5 µM: 4 h; for mean (LOPAC screen with protease) / Replicate_1 (LOPAC screen with protease) / Replicate_2 (LOPAC screen with protease): primary screen at 5 µM.

[1] abbreviates: sheet LOPAC_screen_w_protease, LOPAC1280 at 5 µM, mean of two replicates, read-out: mean.
[2] abbreviates: sheet LOPAC_screen_w_protease, LOPAC1280 at 5 µM, replicate 1, read-out: Replicate_1.
Where [3] appears, read: sheet LOPAC_screen_w_protease, LOPAC1280 at 5 µM, replicate 2, read-out: Replicate_2.
The mark [4] stands for this setting: sheet LOPAC_screen_w_protease, LOPAC1280 primary screen at 5 µM, with protease, mean of the two replicates.
Setting [5] is: sheet LOPAC_screen_w_protease, LOPAC1280 primary screen at 5 µM, with protease, replicate 1.
Setting [6] is: sheet LOPAC_screen_w_protease, LOPAC1280 primary screen at 5 µM, with protease, replicate 2.
[7] abbreviates: LOPAC1280 primary screen with protease, 5 µM compound, mean of two replicates.
The mark [8] stands for this setting: LOPAC1280 primary screen with protease, 5 µM compound, replicate 1.
The mark [9] stands for this setting: LOPAC1280 primary screen with protease, 5 µM compound, replicate 2.
Setting [10] is: sheet LOPAC_screen_w_protease, primary screen of LOPAC1280 at 5 µM with protease, mean of the two replicates.
[11] abbreviates: sheet LOPAC_screen_w_protease, primary screen of LOPAC1280 at 5 µM with protease, replicate 1.
Setting [12] is: sheet LOPAC_screen_w_protease, primary screen of LOPAC1280 at 5 µM with protease, replicate 2.
The mark [13] stands for this setting: LOPAC1280 primary screen with protease, 5 µM compound, mean of the two replicates.
Setting [14] is: sheet LOPAC_screen_w_protease, LOPAC1280 primary screen with protease, 5 µM compound, mean of the two replicates.
[15] abbreviates: sheet LOPAC_screen_w_protease, LOPAC1280 primary screen with protease, 5 µM compound, replicate 1.
Setting [16] is: sheet LOPAC_screen_w_protease, LOPAC1280 primary screen with protease, 5 µM compound, replicate 2.
Setting [17] is: sheet LOPAC_screen_w_protease, primary screen with protease, mean of two replicates.
[18] abbreviates: sheet LOPAC_screen_w_protease, primary screen with protease, replicate 1.
The mark [19] stands for this setting: sheet LOPAC_screen_w_protease, primary screen with protease, replicate 2.
Setting [20] is: LOPAC1280 primary screen with protease, 5 µM compound, replicate 1, read-out: Replicate_1 (LOPAC_screen_w_protease).
[21] abbreviates: LOPAC1280 primary screen with protease, 5 µM compound, replicate 2, read-out: Replicate_2 (LOPAC_screen_w_protease).
Where [22] appears, read: sheet LOPAC_screen_w_protease, mean of two replicates.
Setting [23] is: sheet LOPAC_screen_w_protease, replicate 1.
Setting [24] is: sheet LOPAC_screen_w_protease, replicate 2.

Structures can show the parent of a compound that is named as a salt. Where two headings read alike, the source gives them in different places.

Take `Nc1ccn([C@H]2CC[C@@H](CO)O2)c(=O)n1` [2',3'-dideoxycytidine]: the inhibition at 5 µM is, setting by setting: under setting [1], 1.06%; under setting [2], 1.73%; under setting [3], 0.388%.

Under setting [4], `c1ccc(-c2ccccn2)nc1` [2,2'-Bipyridyl] had a mean of 0.8479. Moreover, the Replicate_1 under setting [5] is on record as 3.924. Under setting [6], this compound came in with a Replicate_2 of -2.2286.

Consider `CC(=O)C(C)=NO` [2,3-Butanedione monoxime], for which the “mean (LOPAC_screen_w_protease)” value under setting [7] is reported as 1.644. Further, under setting [8], the “Replicate_1 (LOPAC_screen_w_protease)” value came out at 1.791. The “Replicate_2 (LOPAC_screen_w_protease)” value under setting [9] was found to be 1.497.

Consider `CC(=O)C(C)=O` [2,3-Butanedione], for which the inhibition at 5 µM was 0.702% (sheet LOPAC_screen_w_protease, LOPAC1280 primary screen at 5 µM, with protease, mean of the two replicates, read-out: mean); 1.88% (sheet LOPAC_screen_w_protease, LOPAC1280 primary screen at 5 µM, with protease, replicate 1, read-out: Replicate_1); -0.473% (sheet LOPAC_screen_w_protease, LOPAC1280 primary screen at 5 µM, with protease, replicate 2, read-out: Replicate_2).

For `COC1=C(OC)C(=O)c2ccccc2C1=O` [2,3-Dimethoxy-1,4-naphthoquinone], the mean under setting [4] is recorded as 0.8524. Under setting [5], this compound registered a Replicate_1 of 0.1505. Further, the Replicate_2 under setting [6] is reported as 1.554.

`Nc1cc(=O)[nH]c(N)n1` [2,6-Diamino-4-pyrimidinone] displayed a mean under setting [10] of 3.421. Also, under setting [11], the Replicate_1 was 3.441. Besides, the Replicate_2 under setting [12] turned out to be 3.4.

Take `O=C[C@H](Cl)[C@@H](O)[C@H](O)[C@H](O)CO` [2-Chloro-2-deoxy-D-glucose]: the “mean (LOPAC_screen_w_protease)” value under setting [13] is 1.752. Besides, the “Replicate_1 (LOPAC_screen_w_protease)” value under setting [8] is listed as 1.144. Besides, the “Replicate_2 (LOPAC_screen_w_protease)” value under setting [9] is 2.361.

For `Nc1nc(Cl)nc2c1ncn2[C@@H]1O[C@H](CO)[C@@H](O)[C@H]1O` [2-Chloroadenosine], the “mean (LOPAC_screen_w_protease)” value under setting [7] came to 1.409. For the same compound, under setting [8], the “Replicate_1 (LOPAC_screen_w_protease)” value came out at 1.21. Besides, the “Replicate_2 (LOPAC_screen_w_protease)” value under setting [9] came to 1.608.

In the case of `NCC(O)(CS(=O)(=O)O)c1ccc(Cl)cc1` (centres unmarked) [2-Hydroxysaclofen], the mean under setting [4] is 0.8279. This compound showed a Replicate_2 under setting [6] of -0.8627.

Compound `COc1ccc2[nH]c(I)c(CCNC(C)=O)c2c1` [2-Iodomelatonin] gave a mean under setting [14] of 5.613. In addition, the Replicate_1 under setting [15] is 6.946. Under setting [16], the Replicate_2 came to 4.28.

`Cc1[nH]c2ccc(O)cc2c1CCN.O=C(O)/C=C\C(=O)O` [2-Methyl-5-hydroxytryptamine maleate]: the mean under setting [14] stood at 5.124. This compound yielded a Replicate_1 under setting [15] of 4.629. The Replicate_2 under setting [16] came out at 5.62.

The compound `Nc1nc(Nc2ccccc2)nc2c1ncn2[C@@H]1O[C@H](CO)[C@@H](O)[C@H]1O` [2-Phenylaminoadenosine] came in with a mean (sheet LOPAC_screen_w_protease, primary screen with protease, 5 µM, mean of two replicates) of -0.1756. This compound also gave a Replicate_1 (sheet LOPAC_screen_w_protease, primary screen with protease, 5 µM, replicate 1) of -0.3497. The same compound had a Replicate_2 (sheet LOPAC_screen_w_protease, primary screen with protease, 5 µM, replicate 2) of -0.001377.

Compound `N/C(=N\C(=O)c1nc(Cl)c(N)nc1N)NCc1ccc(Cl)c(Cl)c1` [3',4'-Dichlorobenzamil] showed a mean under setting [10] of 4.038. The compound further gave a Replicate_1 under setting [11] of 5.158. This compound returned a Replicate_2 under setting [12] of 2.918.

In the case of `Cc1cn(C2CC(N=[N+]=[N-])C(CO)O2)c(=O)[nH]c1=O` (centres unmarked) [3'-Azido-3'-deoxythymidine], the inhibition at 5 µM worked out at 1.04% under setting [1], 1.75% under setting [2] and 0.327% under setting [3].

`O=C(O)Cc1ccc(O)c(O)c1` [3,4-Dihydroxyphenylacetic acid]: the inhibition at 5 µM was 41.7% (read-out: Replicate_1 (LOPAC screen with protease)), 44.4% (read-out: Replicate_2 (LOPAC screen with protease)) and 43.1% (read-out: mean (LOPAC screen with protease)).

`O=[N+]([O-])c1cc(O)c(O)c([N+](=O)[O-])c1` [3,5-Dinitrocatechol] came in with a mean under setting [17] of 2.373. This compound also gave a Replicate_1 under setting [18] of 3.489. This compound also had a Replicate_2 under setting [19] of 1.257.

Regarding `C#CCn1c(=O)c2c(ncn2C)n(C)c1=O` [3,7-Dimethyl-I-propargylxanthine], the mean under setting [17] is on record as 2.439. For the same compound, the Replicate_1 under setting [18] is 3.614. The same compound registered a Replicate_2 under setting [19] of 1.263.

Consider `NCCCS(=O)(=O)O.[Na]` [3-Amino-1-propanesulfonic acid sodium], for which the mean under setting [14] is 5.742. Under setting [15], this compound gave a Replicate_1 of 6.514. Under setting [16], this compound showed a Replicate_2 of 4.97.

For the setting “sheet LOPAC_screen_w_protease, LOPAC1280 at 5 µM, mean of two replicates”, `N#CCCN.N#CCCN.O=C(O)/C=C/C(=O)O` [3-Aminopropionitrile fumarate] showed a mean of 0.9446. This compound also came in with a Replicate_1 (sheet LOPAC_screen_w_protease, LOPAC1280 at 5 µM, replicate 1) of 1.551. The compound also showed a Replicate_2 (sheet LOPAC_screen_w_protease, LOPAC1280 at 5 µM, replicate 2) of 0.3384.

In the case of `NCCCP(=O)(O)O` [3-Aminopropylphosphonic acid], the “mean (LOPAC_screen_w_protease)” value under setting [13] is given as 1.904. Further, under setting [8], the “Replicate_1 (LOPAC_screen_w_protease)” value was 3.261. Moreover, the “Replicate_2 (LOPAC_screen_w_protease)” value under setting [9] was found to be 0.5459.

`O=[N+]([O-])c1cccc2c(Br)n[nH]c12` [3-Bromo-7-nitroindazole]: the “mean (LOPAC_screen_w_protease)” value under setting [13] came out at 1.829. Besides, under setting [8], the “Replicate_1 (LOPAC_screen_w_protease)” value stood at 2.045. Under setting [9], the “Replicate_2 (LOPAC_screen_w_protease)” value is on record as 1.613.

For the compound `NNCc1cccc(O)c1` [3-Hydroxybenzylhydrazine dihydrochloride], the inhibition at 5 µM under setting [20] turned out to be 3.31% and the inhibition at 5 µM under setting [21] is 0.839%. Also, the “mean (LOPAC_screen_w_protease)” value under setting [13] was 2.074.

`N[C@@H](Cc1ccc(O)c(I)c1)C(=O)O` [3-Iodo-L-tyrosine]: under setting [13], the “mean (LOPAC_screen_w_protease)” value came to 1.849. Also, under setting [8], the “Replicate_1 (LOPAC_screen_w_protease)” value was 1.662. For the same compound, the “Replicate_2 (LOPAC_screen_w_protease)” value under setting [9] was 2.037.

Turning to `CC(C)Cn1c(=O)n(C)c(=O)c2[nH]cnc21` [3-Isobutyl-1-methylxanthine], the “mean (LOPAC_screen_w_protease)” value under setting [13] is 2.03. For the same compound, the “Replicate_1 (LOPAC_screen_w_protease)” value under setting [8] was -0.07674. In addition, under setting [9], the “Replicate_2 (LOPAC_screen_w_protease)” value came out at 4.138.

`COc1ccc2c(c1)[C@@]13CCCC[C@H]1[C@@H](C2)NCC3.Cl` [3-Methoxy-morphanin hydrochloride] gave a Replicate_1 of 3.105, a Replicate_2 of 3.489 and a mean of 3.297.

As to `Nc1c[n+](N2CCOCC2)no1.[Cl-]` [3-Morpholinosydnonimine hydrochloride], the “mean (LOPAC screen with protease)” value under setting [22] is 21.789. Besides, the “Replicate_1 (LOPAC screen with protease)” value under setting [23] turned out to be 21.9907. Also, the “Replicate_2 (LOPAC screen with protease)” value under setting [24] is 21.5874.

Turning to `O=C(O)CC[N+](=O)[O-]` [3-Nitropropionic acid], the inhibition at 5 µM is, setting by setting: (sheet LOPAC_screen_w_protease, primary screen of LOPAC1280 at 5 µM with protease, mean of the two replicates, read-out: mean) 3.54%; (sheet LOPAC_screen_w_protease, primary screen of LOPAC1280 at 5 µM with protease, replicate 1, read-out: Replicate_1) 2.8%; (sheet LOPAC_screen_w_protease, primary screen of LOPAC1280 at 5 µM with protease, replicate 2, read-out: Replicate_2) 4.28%.

`Cl.NCC#Cc1ccccc1` [3-Phenylpropargylamine hydrochloride] came in with a mean under setting [4] of 0.744. The compound further showed a Replicate_1 under setting [5] of 1.313. Also, under setting [6], the Replicate_2 amounted to 0.1753.

For the compound `CN1[C@@H]2CC[C@H]1C[C@@H](OC(=O)c1cc(Cl)cc(Cl)c1)C2` [3-Tropanyl-3,5-dichlorobenzoate], the inhibition at 5 µM stood at 2.08% under setting [20] and 0.785% under setting [21]. The “mean (LOPAC_screen_w_protease)” value under setting [7] was 1.4299.

On to `NC(=O)c1cccc(N)c1` [3-aminobenzamide], for which the inhibition at 5 µM runs as follows: under setting [1], 1.28%; under setting [2], 1.05%; under setting [3], 1.51%.

As for `Nc1nccc2c1ncn2[C@@H]1O[C@H](CO)[C@@H](O)[C@H]1O` [3-deazaadenosine], the mean under setting [10] was determined as 3.161. For the same compound, the Replicate_1 under setting [11] was 4.639. Besides, the Replicate_2 under setting [12] is listed as 1.683.

Under setting [17], `CCCn1c(=O)[nH]c(=O)c2nc[nH]c21` [3-n-Propylxanthine] displayed a mean of 2.529. The Replicate_1 under setting [18] came out at 1.492. The compound also displayed a Replicate_2 under setting [19] of 3.5659.

As to `Nc1ccc2c3c(cccc13)C(=O)NC2=O` [4-Amino-1,8-naphthalimide], the “mean (LOPAC screen with protease)” value under setting [22] was determined as 6.555. The “Replicate_1 (LOPAC screen with protease)” value under setting [23] worked out at 8.124. The “Replicate_2 (LOPAC screen with protease)” value under setting [24] worked out at 4.986.
